Assay results: patent US20240158447A1, “PEPTIDES FOR USE IN THE TREATMENT OR PREVENTION OF MYOCARDIAL DAMAGE” (THE UNIVERSITY OF WESTERN AUSTRALIA, priority 2020, published 2024)

Experiments:
[1] = system: cTnI-G203S mice; assay: Heart weight to body weight ratio of treated cTnI-G203S mice; format: in vivo, mouse; conditions: 5 μM, 3×/wk/5 wk; compared with cTnI-G203S AID(S)-TAT; FIG. 16
Procedure: The effect of treatment of the mice with peptides on the development of hypertrophy assessed as changes in heart weight to body weight ratio was also examined. […] FIG. 16 presents the mean±SEM of heart weight to body weight ratio measurements from wt and cTnI-G203S mice treated with 10 μM AID(S)-TAT, 10 μM AID-TAT, 5 μM AIDP7-TAT, 5 μM AIDP14-TAT, 5 μM AIDP15-TAT or 5 μM AIDP16-TAT. n=number of mice as indicated. *P<0.05, **P<0.01 compared with cTnI-G203S AID(S)-TAT as determined by Kruskal-Wallis tests.

[2] = system: cTnI-G203S mice; assay: Echocardiography of pre-cardiomyopathic cTnI-G203S mice (Example 15); format: in vivo, mouse; conditions: 5 μM, 3×/wk/5 wk; versus AID(S)-TAT; FIG. 15
Description: Twenty to thirty week-old male mice expressing the human cTnI gene encoding the human disease-causing cTnI-G203S were generated and used for the in vivo studies. By way of background, the mice develop hallmark features of HCM between 20 and 25 weeks (Viola H, Johnstone V, Cserne Szappanos H, Richman T, Tsoutsman T, Filipovska A, et al. The L-type Ca(2+) channel facilitates abnormal metabolic activity in the cTnI-G2035 mouse model of hypertrophic cardiomyopathy. J Physiol. 2016; 594(14):4051-70; Viola H M, Shah A A, Johnstone V P A, Cserne Szappanos H, Hodson M P, Hool L C. Characterization and validation of a preventative therapy for hypertrophic cardiomyopathy in a murine model of the disease. Proc Nati Aced Sci U S A. 2020; 117(37):23113-24; Tsoutsman T, Chung J, Doolan A, Nguyen L, Williams IA, Tu E, et al. Molecular insights from a novel cardiac troponin I mouse model of familial hypertrophic cardiomyopathy. J Mol Cell Cardiol. 2006; 41(4):623-32). Age-matched male mice expressing the normal human troponin I gene were used as controls and indicated as wild-type (wt). For in vivo studies, 20-week old cTnI-G203S mice were treated with 10 μM AID(S)-TAT (2 mg/kg) or 5 μM AID-TAT mutant peptides via intraperitoneal injection, 3 times per week for a total duration of 5 weeks. The peptide was dissolved in phosphate buffered saline solution (PBS), and the total amount of the 10 μM AID-TAT mutant peptides administered over 5 weeks was 0.9 mg. The total amount of the 5 μM AID-TAT mutant peptides administered over 5 weeks was 0.45 mg Male mice were utilized to eliminate potential differences in responses due to gender. The number of mice used is indicated by N.
Echocardiographic studies to measure left ventricular function were performed on mice under light methoxyflurane anaesthesia with the use of an i13L probe on a Vivid™ 7 IQ ultrasound system (GE Healthcare, Little Chalfont, UK) as previously described (Viola H, Johnstone V, Cserne Szappanos H, Richman T, Tsoutsman T, Filipovska A, et al. The L-type Ca(2+) channel facilitates abnormal metabolic activity in the cTnI-G2035 mouse model of hypertrophic cardiomyopathy. J Physiol. 2016; 594(14):4051-70; Viola H M, Shah A A, Johnstone V P A, Cserne Szappanos H, Hodson M P, Hool L C. Characterization and validation of a preventative therapy for hypertrophic cardiomyopathy in a murine model of the disease. Proc Natl Acad Sci U S A. 2020; 117(37):23113-24; Viola H M, Johnstone V P A, Cserne Szappanos H, Richman T R, Tsoutsman T, Filipovska A, et al. The Role of the L-Type Ca(2+) Channel in Altered Metabolic Activity in a Murine Model of Hypertrophic Cardiomyopathy. JACC Basic Transl Sci. 2016; 1(1-2):61-72). Each N represents the average of quantitative measurements from wt or cTnI-G203S mice for each treatment group.

[3] = system: cTnI.2 wt myocytes; assay: Mitochondrial membrane potential (JC-1) response to BayK(−), wt myocytes (Example 10); format: cell-based, mouse; conditions: 0.5 μM peptide, calcium-free, FIG. 11A
Procedure: (§1) In this experiment wt myocytes were pre-exposed to 0.1, 0.5 or 1 μM for 20 min and assessed changes in flavoprotein oxidation and ψm.
Measurement of mitochondrial membrane potential: The fluorescent indicator 5,5′,6,6′-tetrachloro1,1′,3,3′-tetraethylbenzimidazolylcarbocyanine iodide (JC-1) was used to measure mitochondrial membrane potential (ψm) as previously described (Viola H M, Arthur P G, Hool L C. Transient exposure to hydrogen peroxide causes an increase in mitochondria-derived superoxide as a result of sustained alteration in L-type Ca2+ channel function in the absence of apoptosis in ventricular myocytes. Circ Res. 2007; 100(7):1036-44). […] Images were acquired at 2 min intervals with 50 ms exposure. Metamorph 6.3 (Version 7.10.3) was used to quantify the signal by manually tracing myocytes. An equivalent region not containing cells was used as background and was subtracted. The 580 nm/535 nm ratiometric fluorescence values recorded over 6 min before and 4 min after addition of drugs were averaged and alterations in fluorescent ratios reported as the percentage increase from the basal average. […] In addition, individual 580 and 535 signals were assessed in each experiment to determine whether the fluorescent indicator was accurately measuring ψm. […]
Based on results obtained from in vitro assessment of flavoprotein oxidation, the effect of 0.5 μM AID-TAT variants on changes in mitochondrial membrane potential (ψm) was further explored. Experiments were performed using JC-1 fluorescence under calcium-free conditions as previously described (Viola H, Johnstone V, Cserne Szappanos H, Richman T, Tsoutsman T, Filipovska A, et al. The L-type Ca(2+) channel facilitates abnormal metabolic activity in the cTnI-G2035 mouse model of hypertrophic cardiomyopathy. J Physiol. 2016; 594(14):4051-70; Viola H M, Shah A A, Johnstone V P A, Cserne Szappanos H, Hodson M P, Hool L C. Characterization and validation of a preventative therapy for hypertrophic cardiomyopathy in a murine model of the disease. Proc Natl Acad Sci U S A. 2020; 117(37):23113-24). […]

[4] = system: cTnI-G203S mutant myocytes; assay: Mitochondrial membrane potential (JC-1) response to BayK(−), cTnI-G203S myocytes (Example 10); format: cell-based, mouse; conditions: for BayK(−) induced increase in ψm (JC-1 fluorescence): 0.5 μM peptide, calcium-free, FIG. 11B
Procedure: as §1
Measurement of mitochondrial membrane potential: The fluorescent indicator 5,5′,6,6′-tetrachloro1,1′,3,3′-tetraethylbenzimidazolylcarbocyanine iodide (JC-1) was used to measure mitochondrial membrane potential (ψm) as previously described (Viola H M, Arthur P G, Hool L C. Transient exposure to hydrogen peroxide causes an increase in mitochondria-derived superoxide as a result of sustained alteration in L-type Ca2+ channel function in the absence of apoptosis in ventricular myocytes. Circ Res. 2007; 100(7):1036-44). […] Images were acquired at 2 min intervals with 50 ms exposure. Metamorph 6.3 (Version 7.10.3) was used to quantify the signal by manually tracing myocytes. An equivalent region not containing cells was used as background and was subtracted. The 580 nm/535 nm ratiometric fluorescence values recorded over 6 min before and 4 min after addition of drugs were averaged and alterations in fluorescent ratios reported as the percentage increase from the basal average. To confirm that the signal was indicative of ψm, 40 mM NaCN was added at the end of each experiment to collapse ψm. In addition, individual 580 and 535 signals were assessed in each experiment to determine whether the fluorescent indicator was accurately measuring ψm. For calcium-free experiments, cells were exposed to calcium-free HBS (supplemented with 3 mM EGTA and 200 nM JC-1) for at least 3 h prior to measuring changes in ψm.
Based on results obtained from in vitro assessment of flavoprotein oxidation, the effect of 0.5 μM AID-TAT variants on changes in mitochondrial membrane potential (ψm) was further explored. Experiments were performed using JC-1 fluorescence under calcium-free conditions as previously described (Viola H, Johnstone V, Cserne Szappanos H, Richman T, Tsoutsman T, Filipovska A, et al. The L-type Ca(2+) channel facilitates abnormal metabolic activity in the cTnI-G2035 mouse model of hypertrophic cardiomyopathy. J Physiol. 2016; 594(14):4051-70; Viola H M, Shah A A, Johnstone V P A, Cserne Szappanos H, Hodson M P, Hool L C. Characterization and validation of a preventative therapy for hypertrophic cardiomyopathy in a murine model of the disease. Proc Natl Acad Sci U S A. 2020; 117(37):23113-24). […] FIG. 11 presents the mean+/−SE of JC-1 fluorescence from cTnI.2 wt and cTnI-G203S mutant myocytes before and after exposure to 10 μM BayK(−) in the presence of 1 μM AID(S)-TAT, and 0.5 μM of variant peptides as indicated. N=no. of animals, n=no. of cardiomyocytes. P values shown compared with AID(S)-TAT as determined by the Kruskal-Wallis test.

[5] = system: cTnI-G203S mutant myocytes; assay: Flavoprotein oxidation response to BayK(−), cTnI-G203S myocytes (Example 10); format: cell-based, mouse; conditions: 0.5 μM peptide, 10 μM BayK(−), FIG. 10D
Procedure: as §1
Measurement of mitochondrial flavoprotein oxidation: Flavoprotein autofluorescence was used to measure flavoprotein oxidation based on previously described methods (Yaniv Y, Juhaszova M, Lyashkov A E, Spurgeon H A, Sollott S J, Lakatta E G. Ca2+-regulated-cAMP/PKA signaling in cardiac pacemaker cells links ATP supply to demand. J Mol Cell Cardiol. 2011; 51(5):740-8). […] Fluorescent images were acquired at 1 min intervals with 200 ms exposure. Metamorph 6.3 (Version 7.10.3) was used to quantify the signal by manually tracing myocytes. […] Fluorescence values recorded over 5 min before and 5 min after addition of drugs were averaged and alterations in fluorescent ratios reported as the percentage increase from the basal average. FCCP (50 μM) and NaCN (40 mM) was added at the end of each experiment to achieve a respective maximal and minimal fluorescence value indicative of maximal and minimal flavoprotein oxidation.
The ICA-L agonist BayK(−) was used to activate the channel and assess mitochondrial function. […] FIG. 10 presents the mean+/−SEM of flavoprotein fluorescence from cTnI.2 wt and cTnI-G2035 mutant myocytes before and after exposure to 10 μM BayK(−) in the presence of 1 μM AID(S)-TAT, and increasing concentrations of variant peptides as indicated. […]

[6] = system: cTnI.2 wt myocytes; assay: Flavoprotein oxidation response to BayK(−), wt myocytes (Example 10); format: cell-based, mouse; conditions: 1 μM peptide 20 min, 10 μM BayK(−), FIG. 10A
Procedure: as §1
Measurement of mitochondrial flavoprotein oxidation: Flavoprotein autofluorescence was used to measure flavoprotein oxidation based on previously described methods (Yaniv Y, Juhaszova M, Lyashkov A E, Spurgeon H A, Sollott S J, Lakatta E G. Ca2+-regulated-cAMP/PKA signaling in cardiac pacemaker cells links ATP supply to demand. J Mol Cell Cardiol. 2011; 51(5):740-8). […] Fluorescent images were acquired at 1 min intervals with 200 ms exposure. Metamorph 6.3 (Version 7.10.3) was used to quantify the signal by manually tracing myocytes. An equivalent region not containing cells was used as background and was subtracted. Fluorescence values recorded over 5 min before and 5 min after addition of drugs were averaged and alterations in fluorescent ratios reported as the percentage increase from the basal average. FCCP (50 μM) and NaCN (40 mM) was added at the end of each experiment to achieve a respective maximal and minimal fluorescence value indicative of maximal and minimal flavoprotein oxidation.
The ICA-L agonist BayK(−) was used to activate the channel and assess mitochondrial function. […] FIG. 10 presents the mean+/−SEM of flavoprotein fluorescence from cTnI.2 wt and cTnI-G2035 mutant myocytes before and after exposure to 10 μM BayK(−) in the presence of 1 μM AID(S)-TAT, and increasing concentrations of variant peptides as indicated. N=no. of animals, n=no. of cardiomyocytes. P values shown compared with AID(S)-TAT as determined by the Kruskal-Wallis test.

Substance | heart weight to body weight ratio [1] | EF, ejection fraction [2] | FS, fractional shortening [2] | IVSd, intraventricular septum in diastole [2] | IVSs, intraventricular septum in systole [2] | LVEDd, left ventricular end diameter during diastole [2] | LVEDs, left ventricular end diameter during systole [2] | LVPWd, left ventricular posterior wall in diastole [2] | LVPWs, left ventricular posterior wall in systole [2] | BayK(−) induced increase in ψm (JC-1 fluorescence) [3] | BayK(−) induced increase in ψm (JC-1 fluorescence) [4] | normalising mitochondrial metabolic activity (in vitro, overall) ([4]; flavoprotein oxidation and JC-1 data together) | BayK(−) induced increase in flavoprotein oxidation [5] | BayK(−) induced increase in flavoprotein oxidation [6]
AIDP14-TAT: QQEEEDLKGYLDWITQAE with TAT sequence | significantly decreased heart weight/body weight | effectively restored | effectively restored | effectively restored | effectively restored | trend toward increased LVEDd | effectively restored | effectively restored | effectively restored | significantly attenuated the response | significantly attenuated the response | most effective in normalising mitochondrial metabolic activity | significantly attenuated increases in flavoprotein oxidation resulting from BayK(−) exposure | 
AIDP15-TAT: QQEEEDEKGYLDWITQAE with TAT sequence |  | effectively restored | effectively restored | effectively restored | effectively restored |  |  |  | effectively restored | significantly attenuated the response | significantly attenuated the response |  |  | just as effective at attenuating the response in wt myocytes as the original AID-TAT
